Source: US20250228837A1, “(2S)-1-[4-(3,4-DICHLOROPHENYL)PIPERIDIN-1-YL]-3-[2-(5-METHYL-1,3,4-OXADIAZOL-2-YL)BENZO[B]FURAN-4-YLOXY] PROPAN-2-OL OR ITS METABOLITE FOR TREATING ANXIETY DISORDERS” (Minerva Neurosciences, Inc., priority 2016, published 2025)
Entries after “also recorded” stand apart in the source; their conditions may differ. Counter-ions that a name gives are not always drawn. Like-named read-outs stand apart in the source and are kept apart here.

Assays:
serotonin reuptake = serotonin reuptake (Homo sapiens, UniProt P31645); conditions: from U.S. Pat. No. 6,720,320 / Minerva Form 10K, cited from earlier work
serotonin reuptake, sequence (P31645 whole entry): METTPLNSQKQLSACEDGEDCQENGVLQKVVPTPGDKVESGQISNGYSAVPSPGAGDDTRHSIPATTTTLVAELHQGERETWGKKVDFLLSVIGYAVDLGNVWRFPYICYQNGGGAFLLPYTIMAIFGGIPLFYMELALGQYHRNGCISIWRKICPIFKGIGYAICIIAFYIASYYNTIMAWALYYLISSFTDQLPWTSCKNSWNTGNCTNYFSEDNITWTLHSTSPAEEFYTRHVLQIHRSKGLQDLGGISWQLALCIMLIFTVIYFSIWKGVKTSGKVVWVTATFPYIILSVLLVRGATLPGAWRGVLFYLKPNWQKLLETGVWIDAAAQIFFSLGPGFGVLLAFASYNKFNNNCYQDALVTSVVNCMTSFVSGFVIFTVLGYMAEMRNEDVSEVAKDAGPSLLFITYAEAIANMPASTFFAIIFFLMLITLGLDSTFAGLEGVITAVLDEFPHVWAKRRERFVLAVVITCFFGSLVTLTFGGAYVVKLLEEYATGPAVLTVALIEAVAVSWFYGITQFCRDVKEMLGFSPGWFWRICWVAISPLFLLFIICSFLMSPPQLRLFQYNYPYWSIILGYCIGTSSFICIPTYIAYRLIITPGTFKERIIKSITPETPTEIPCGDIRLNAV

5-HT1A receptor [1] = molecular target: T1, 5-HT1A receptor (Homo sapiens, UniProt P08908); conditions: in vitro; disclosed in U.S. Pat. No. 6,720,320; cited from earlier work
T1 sequence (P08908 1-422): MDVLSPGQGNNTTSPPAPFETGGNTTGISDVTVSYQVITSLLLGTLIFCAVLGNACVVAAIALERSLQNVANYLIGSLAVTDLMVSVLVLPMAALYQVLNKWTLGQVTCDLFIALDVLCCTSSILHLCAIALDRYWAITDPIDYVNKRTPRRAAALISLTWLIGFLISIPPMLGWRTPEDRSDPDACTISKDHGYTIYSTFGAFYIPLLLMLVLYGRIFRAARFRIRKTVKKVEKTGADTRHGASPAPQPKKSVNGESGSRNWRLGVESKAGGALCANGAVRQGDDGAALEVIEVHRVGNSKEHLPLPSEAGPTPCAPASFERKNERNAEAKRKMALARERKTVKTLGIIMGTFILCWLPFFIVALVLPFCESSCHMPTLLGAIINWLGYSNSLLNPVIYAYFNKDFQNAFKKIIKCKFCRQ

5-HT1A receptor [2] = molecular target: T1, 5-HT1A receptor; conditions: from U.S. Pat. No. 6,720,320 / Minerva Form 10K, cited from earlier work
adult subjects with MDD = test: Phase 2a randomized, double-blind, placebo- and active-controlled study; anxiety by HAM-A over 6 weeks; format: in vivo, human; conditions: for speed of onset of the reduction in total HAM-A score: 0.5 mg dose compared with the 2.5 mg dose and other arms, Week 1 vs. Week 2; for reduction in severity of anxiety symptoms compared to placebo (change from baseline in total HAM-A score): MDD patients, ITT, once daily oral 0.5 mg or 2.5 mg, 6 weeks of treatment
Protocol: In an embodiment, the effect of the treatment is measured using the Hamilton Anxiety Scale (HAM-A). The subject is asked to rate the gravity of each item using a 5-level scale—from 0 to 4, where 0 being not present and 4 being severe. The results are then collated and tabulated to determine the severity of anxiety: a HAM-A score of <17 is mild anxiety, HAM-A score of 18-24 is mild to moderate anxiety, and HAM-A score of 25-30 is moderate to severe anxiety.
A phase 2a, multicenter, multinational, randomized, double-blind, placebo- and active-controlled parallel-group study was conducted to investigate the efficacy and safety of MIN-117 in adult subjects with MDD. One of the exploratory objectives of the study was to assess effects of MIN-117 compared to placebo on anxiety as measured by change from baseline in the Hamilton Anxiety Rating Scale (HAM-A) over 6 weeks of treatment.
The study consisted of a 4-week pre-treatment phase during which subjects were washed out from antidepressant medications or other psychotropics, followed by a 6-week treatment phase, and then an end of study (EOS) follow-up visit at approximately 2-weeks after the end of the treatment phase. MIN-117 capsules of 0.5 mg and 2.5 mg strength were used in the study. The capsules were size 4 made of white hard gelatin containing the drug substance, lactose, cornstarch, low substituted hydroxypropylcelullose and hydroxypropylcelullose, and purified water.
Eighty-four eligible subjects (met the DSM-5 diagnostic criteria for moderate to severe MDD, without psychotic features) were randomized in a 1:1:1:1 ratio, to receive once daily oral doses of placebo, MIN-117 at 0.5 mg, MIN-117 at 2.5 mg, or paroxetine at 20 mg as an active comparator for 6 weeks. Paroxetine is an antidepressant of the SSRI class and is used to treat MDD, OCD, PTSD, social anxiety disorder, panic disorder, GAD, premenstrual dysphoric disorder and menopausal hot flashes. The HAM-A scale was used to measure the severity of each subject's anxiety at screening, baseline, and weeks 1, 2, 4, 6 (or early withdrawal) and EOS.
Subjects had to meet all of the following inclusion criteria to be eligible for participation in this study: • 1. Subjects must be able to read and understand the consent forms, complete study-related procedures, and communicate with the study staff. • 2. Subjects must have provided written consent to participate in the study and understand that they are free to withdraw from the study at any time. • 3. Male or female subjects must be 18 to 65 years of age, inclusive, at Screening (Visit 1). • 4. Subjects have a body mass index (BMI) of ≥18 to ≤35 kg/m^2 [BMI=weight (kg)/height (m^2)] at Screening (Visit 1) • 5. Subjects must meet Diagnostic and Statistical Manual of Mental Disorders—Fifth Edition (DSM-5) criteria for diagnosis of moderate or severe depression without psychotic features (ICD-9 codes 296.32 & 296.33; ICD-10 codes F33.1 & F33.2, respectively) at Screening based on clinical assessment and on the MINI, v7.0. • 6. Subjects have a history of at least one previous episode of depression prior to the current episode. • 7. Current major depressive episode of at least 8 weeks in duration. • 8. Subjects must have a score of ≥30 on the investigator-rated MADRS at Screening (Visit 1) and Baseline (Visit 2a). • 9. Subjects must have a score of ≥4 on the investigator-rated CGI-S at Screening (Visit 1) and Baseline (Visit 2a). • 10. Subjects must be in good general health prior to study participation with no clinically relevant abnormalities as assessed by the investigator and determined by medical history, physical examination, blood chemistry, hematology, urinalysis, and electrocardiogram (ECG). • 11. […] Male subjects who are willing to use condom for the duration of the study and until 90 days after the last dose of the study, even if they have had vasectomy, and must inform their partners about taking an investigational medication. […]

α1A-adrenergic receptor = molecular target: T2, α1A-adrenergic receptor (Homo sapiens, UniProt P35348); conditions: Minerva Form 10K, 14 Mar. 2016; cited from earlier work
T2 sequence (P35348 1-466): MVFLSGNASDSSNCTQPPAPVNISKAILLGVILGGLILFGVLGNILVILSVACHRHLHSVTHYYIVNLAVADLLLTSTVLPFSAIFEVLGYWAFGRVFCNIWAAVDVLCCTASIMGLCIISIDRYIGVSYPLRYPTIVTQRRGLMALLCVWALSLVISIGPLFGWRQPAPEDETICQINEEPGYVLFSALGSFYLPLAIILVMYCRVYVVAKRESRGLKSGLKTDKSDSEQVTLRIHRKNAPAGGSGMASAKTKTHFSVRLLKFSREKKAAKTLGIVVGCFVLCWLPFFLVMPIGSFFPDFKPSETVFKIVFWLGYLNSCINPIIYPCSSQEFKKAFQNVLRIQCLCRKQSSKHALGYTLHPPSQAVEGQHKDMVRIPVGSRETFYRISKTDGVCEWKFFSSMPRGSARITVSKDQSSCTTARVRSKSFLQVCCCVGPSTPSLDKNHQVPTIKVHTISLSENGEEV

α1B-adrenergic receptor = molecular target: T3, α1B-adrenergic receptor (Homo sapiens, UniProt P35368); conditions: Minerva Form 10K, 14 Mar. 2016; cited from earlier work
T3 sequence (P35368 1-520): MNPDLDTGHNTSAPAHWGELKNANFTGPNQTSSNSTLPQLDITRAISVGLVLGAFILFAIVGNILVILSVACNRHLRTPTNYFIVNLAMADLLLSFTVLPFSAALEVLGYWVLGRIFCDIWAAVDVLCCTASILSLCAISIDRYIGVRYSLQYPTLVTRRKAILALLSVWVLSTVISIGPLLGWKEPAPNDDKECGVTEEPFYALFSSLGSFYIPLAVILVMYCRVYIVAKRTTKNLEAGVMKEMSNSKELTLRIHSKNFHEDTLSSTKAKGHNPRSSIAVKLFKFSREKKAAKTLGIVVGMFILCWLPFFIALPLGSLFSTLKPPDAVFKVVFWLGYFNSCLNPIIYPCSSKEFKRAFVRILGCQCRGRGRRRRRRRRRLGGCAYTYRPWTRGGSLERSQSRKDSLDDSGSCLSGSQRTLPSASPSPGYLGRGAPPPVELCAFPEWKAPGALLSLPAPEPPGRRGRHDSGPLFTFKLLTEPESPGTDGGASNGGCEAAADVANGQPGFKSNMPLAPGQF

5-HT2A receptors = 5-HT2A receptors (Homo sapiens, UniProt P28223); conditions: Minerva Form 10K, 14 Mar. 2016; cited from earlier work
5-HT2A receptors, sequence (P28223 whole entry): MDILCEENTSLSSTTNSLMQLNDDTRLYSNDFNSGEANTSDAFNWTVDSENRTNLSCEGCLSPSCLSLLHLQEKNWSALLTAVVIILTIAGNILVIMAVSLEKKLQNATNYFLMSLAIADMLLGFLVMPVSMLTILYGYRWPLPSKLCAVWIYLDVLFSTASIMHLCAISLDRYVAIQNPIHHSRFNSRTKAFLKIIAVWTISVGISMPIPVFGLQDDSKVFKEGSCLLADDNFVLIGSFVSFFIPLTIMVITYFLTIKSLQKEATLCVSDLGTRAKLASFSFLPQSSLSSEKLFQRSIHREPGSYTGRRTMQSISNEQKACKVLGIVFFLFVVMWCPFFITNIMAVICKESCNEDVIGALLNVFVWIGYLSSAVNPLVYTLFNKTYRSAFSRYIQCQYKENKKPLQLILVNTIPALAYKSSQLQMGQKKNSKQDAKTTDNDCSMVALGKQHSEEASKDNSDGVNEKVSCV

dopamine reuptake = dopamine reuptake (Homo sapiens, UniProt Q01959); conditions: Minerva Form 10K, 14 Mar. 2016; cited from earlier work
dopamine reuptake, sequence (Q01959 whole entry): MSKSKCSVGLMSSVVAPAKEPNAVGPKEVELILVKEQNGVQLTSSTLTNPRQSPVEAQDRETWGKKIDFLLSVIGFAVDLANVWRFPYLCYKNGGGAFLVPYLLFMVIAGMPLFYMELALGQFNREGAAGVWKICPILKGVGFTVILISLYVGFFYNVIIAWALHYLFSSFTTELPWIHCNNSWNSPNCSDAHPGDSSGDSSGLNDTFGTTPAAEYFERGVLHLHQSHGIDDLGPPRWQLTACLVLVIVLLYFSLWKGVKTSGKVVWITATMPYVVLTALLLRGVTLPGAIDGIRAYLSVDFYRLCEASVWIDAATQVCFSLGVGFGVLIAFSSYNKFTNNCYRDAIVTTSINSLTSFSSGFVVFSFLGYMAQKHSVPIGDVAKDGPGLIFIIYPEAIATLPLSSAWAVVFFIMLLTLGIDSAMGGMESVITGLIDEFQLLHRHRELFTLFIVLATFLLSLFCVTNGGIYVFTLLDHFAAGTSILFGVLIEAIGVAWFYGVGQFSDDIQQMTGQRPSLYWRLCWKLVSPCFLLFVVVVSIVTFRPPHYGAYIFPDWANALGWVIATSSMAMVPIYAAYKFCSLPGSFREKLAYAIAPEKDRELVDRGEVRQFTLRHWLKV

For `OCc1nnc(-c2cc3c(OC[C@@H](O)CN4CCC(c5ccc(Cl)c(Cl)c5)CC4)cccc3o2)o1` [Compound II, (2S)-1-[4-(3,4-dichlorophenyl)piperidin-1-yl]-3-[2-(5-hydroxymethyl-1,3,4-oxadiazol-2-yl)benzo[b]furan-4-yloxy]propan-2-ol], the “activity on serotonin (5-HT) reuptake” value (serotonin reuptake) is listed as 5-HT reuptake inhibitory activity, the “affinity for the 5-HT1A receptor” value (5-HT1A receptor [1]) is listed as “selective affinity” and the “activity at the 5-HT1A receptor” value (5-HT1A receptor [2]) is listed as “antagonistic activity”.
For `Cc1nnc(-c2cc3c(OC[C@@H](O)CN4CCC(c5ccc(Cl)c(Cl)c5)CC4)cccc3o2)o1` [Compound I, (2S)-1-[4-(3,4-dichlorophenyl)piperidin-1-yl]-3-[2-(5-methyl-1,3,4-oxadiazol-2-yl)benzo[b]furan-4-yloxy]propan-2-ol], the “activity on serotonin (5-HT) reuptake” value (serotonin reuptake) is listed as 5-HT reuptake inhibitory activity, the “affinity for the 5-HT1A receptor” value (5-HT1A receptor [1]) is listed as “selective affinity” and the “speed of onset of the reduction in total HAM-A score” value (adult subjects with MDD) is listed as “more rapid reduction”. For the same molecule, the “reduction in severity of anxiety symptoms compared to placebo (change from baseline in total HAM-A score)” value (adult subjects with MDD) was “reduced anxiety symptoms compared to placebo; also recorded: capable of reducing the severity of one or more anxiety symptoms” and the “activity at the 5-HT1A receptor” value (5-HT1A receptor [2]) was “antagonistic activity”.
For `Cc1nnc(-c2cc3c(OC[C@@H](O)CN4CCC(c5ccc(Cl)c(Cl)c5)CC4)cccc3o2)o1` [MIN-117, (2S)-1-[4-(3,4-dichlorophenyl)piperidin-1-yl]-3-[2-(5-methyl-1,3,4-oxadiazol-2-yl)benzo[b]furan-4-yloxy]propan-2-ol monohydrochloride], the “affinity for the α1A-adrenergic receptor” value (α1A-adrenergic receptor) is given as “having affinity”, the “activity on serotonin (5-HT) reuptake” value (serotonin reuptake; monohydrochloride) is given as “antagonist” and the “speed of onset of the reduction in total HAM-A score” value (adult subjects with MDD; monohydrochloride) is given as “fastest onset”. The “time after starting therapy to a beneficial result over placebo” value (adult subjects with MDD; 0.5 mg total daily dose) was 2 weeks, the “reduction in severity of anxiety symptoms compared to placebo (change from baseline in total HAM-A score)” value (adult subjects with MDD; monohydrochloride) was “reduces anxiety symptoms; also recorded: capable of reducing the severity of one or more anxiety symptoms” and the tolerability (adult subjects with MDD; both doses (0.5 mg and 2.5 mg once daily, 6 weeks)) was “well tolerated”. For the same molecule, the “ability of both doses to reduce severity of symptoms, 0.5 mg vs 2.5 mg” value (adult subjects with MDD; by Week 6) was “comparable”, the “affinity for the α1B-adrenergic receptor” value (α1B-adrenergic receptor) was “having affinity” and the “activity at the 5-HT2A receptor” value (5-HT2A receptors) was “antagonist”. For the same molecule, the “activity on dopamine reuptake” value (dopamine reuptake) was “antagonist” and the “activity at the 5-HT1A receptor” value (5-HT1A receptor [2]; monohydrochloride) was “antagonist”.
